pIC50: −log10 of the molar value.
Key:
Delta-5-Desaturase (D5D) [1] = target: Delta-5-Desaturase (D5D) (Homo sapiens (Human), UniProt O60427); assay: In vitro measurement of Delta-5-Desaturase inhibitory activity using DGLA-CoA and Arachidonyl-CoA mass spectrometric assays; type: biochemical; details: membrane preparations of D5D-overexpressing HEK293 6E cells; averaged over at least two independent runs
Summary of the method: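 Membranes from D5D-overexpressing HEK293 6E cells (10 μg/mL final) in Tris pH 7.5 with MgCl2, octyl glucoside and TCEP were mixed 1:1 with substrate solution (0.01 mM DGLA, 0.25 mM NADH, 0.25 mM ATP, 0.05 mM CoA) for 1 h at ambient temperature. RapidFire SPE-MS/MS MRM; IC50 by 4-parameter fit, ≥2 runs.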

Delta-5-Desaturase (D5D) [2] = target: Delta-5-Desaturase (D5D) (Mus musculus (Mouse), UniProt Q920L1); assay: In vivo measurement of Delta-5-Desaturase inhibitory activity (plasma AA/DGLA ratio in DIO mice); details: single oral dose 30 mg/kg, read-out: Average % D5D Inhibition expressed as Plasma Endogenous AA/DGLA Ratio
Method: In vivo Measurement of Delta-5-Desaturase Inhibitory Activity
Diet-induced obese (DIO; Jackson Laboratories strain #3800050) mice were used to screen for pharmacodynamic (PD) activity of test compounds. Generally, 14 to 24 week old DIO mice, were administered test compounds formulated in the vehicle of 2% hydroxypropyl methylcellulose (HPMC) and 1% Tween80. Animals were dosed on body weight by oral gavage with a single dose (30 mg/kg) for PD studies. Necropsy included plasma collection for PUFA analysis. 10 μl of plasma or standards diluted in surrogate matrix (65 g/l bovine serum albumin in Dulbecco's phosphate-buffered saline) were mixed with 10 μl of an internal standard (100 μM alpha-linolenic acid-d14 (ALA-d14, Cayman Chemical)) in a 96 well plate. 100 μl of 2N NAOH was added to the mixture for subsequent saponification at 65° C. for 1 hour. The mixture was then acidified with 50 μl of formic acid followed by two consecutive hexane extractions. Hexane (500 μl) was added and the mixture thoroughly mixed by vortexing, followed by centrifugation at 4,000 rpm for 15 min. The hexane phase was transferred to a new 1 ml 96 well plate and the remaining aqueous layer was extracted with hexane. The organic extracts were combined and the solvent was removed by placing the plate under nitrogen gas at 55° C. 250 μl of 90% methanol was added to the plate followed by vortexing for 2 minutes. 200 μl of the samples were transferred to a new 96 well polypropylene plate. The samples were analyzed on a LC-MS/MS for the following PUFAs: arachidonic acid (AA), dihomo-gamma-linolenic acid (DGLA), with ALA-d14 as the internal standard. Description of the LC-MS/MS method: 5 μl of sample was injected onto a Poroshell 120 EC-C18 3.0×50 mm, 1.9 μm id column. […] The PUFA peak areas were quantified by using the SCIEX Analyst software. […] The relative decrease of the AA/DGLA ratio of the test compound administered group relative to the vehicle administered group was calculated and used as an index for the degree of D5D inhibition.
The results presented in Table 27 were obtained using certain compounds described herein in the in vivo protocol described above.

Chain of Delta-5-Desaturase (D5D) (Homo sapiens (Human), UniProt O60427) (O60427 whole entry, species assumed): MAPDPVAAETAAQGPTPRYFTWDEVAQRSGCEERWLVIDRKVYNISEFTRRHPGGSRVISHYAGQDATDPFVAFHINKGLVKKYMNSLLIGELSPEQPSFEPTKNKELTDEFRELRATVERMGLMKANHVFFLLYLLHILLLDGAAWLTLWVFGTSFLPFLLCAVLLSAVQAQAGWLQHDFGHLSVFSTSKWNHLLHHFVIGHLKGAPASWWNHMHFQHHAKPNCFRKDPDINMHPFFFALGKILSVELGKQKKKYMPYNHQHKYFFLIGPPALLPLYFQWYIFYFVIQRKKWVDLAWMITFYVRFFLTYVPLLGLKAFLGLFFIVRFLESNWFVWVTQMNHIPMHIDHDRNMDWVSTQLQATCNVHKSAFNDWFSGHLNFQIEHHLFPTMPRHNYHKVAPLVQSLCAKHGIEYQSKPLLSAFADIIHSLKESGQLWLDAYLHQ
Chain of Delta-5-Desaturase (D5D) (Mus musculus (Mouse), UniProt Q920L1) (Q920L1 whole entry): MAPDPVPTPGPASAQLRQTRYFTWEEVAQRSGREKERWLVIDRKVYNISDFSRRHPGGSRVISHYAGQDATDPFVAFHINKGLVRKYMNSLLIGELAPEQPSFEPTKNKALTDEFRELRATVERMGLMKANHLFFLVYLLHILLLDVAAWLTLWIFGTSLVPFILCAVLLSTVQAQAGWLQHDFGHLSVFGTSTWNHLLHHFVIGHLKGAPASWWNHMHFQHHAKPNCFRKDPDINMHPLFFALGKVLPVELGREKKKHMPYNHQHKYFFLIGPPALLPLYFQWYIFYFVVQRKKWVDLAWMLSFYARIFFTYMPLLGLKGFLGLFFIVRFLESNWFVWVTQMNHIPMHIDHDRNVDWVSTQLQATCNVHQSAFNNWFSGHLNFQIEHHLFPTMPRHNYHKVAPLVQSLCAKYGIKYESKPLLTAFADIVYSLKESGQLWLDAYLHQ

pIC50 (Delta-5-Desaturase (D5D) [1])	inhibition in vivo at 30 mg/kg (Delta-5-Desaturase (D5D) [2]) [%]	SMILES
8.18	60	COc1ccn2c(=O)c(-c3ccc(OCC4CC4(F)F)cc3)c(C(F)(F)F)nc2c1 (stereo not shown) [Example 1-4, 3-(4-((2,2-difluorocyclopropyl)methoxy)phenyl)-8-methoxy-2-(trifluoromethyl)-4H-pyrido[1,2-a]pyrimidin-4-one]
8.29	62	COc1ccn2c(=O)c(-c3ccc(OCC4CC4)cc3)c(C(F)(F)F)nc2c1 [Example 1-8, 3-(4-(cyclopropylmethoxy)phenyl)-8-methoxy-2-(trifluoromethyl)-4H-pyrido[1,2-a]pyrimidin-4-one]
	35	COc1ccn2c(=O)c(-c3ccc(OC(F)(F)F)cc3F)c(C(F)(F)F)nc2c1 [Example 1-9, 3-(2-fluoro-4-(trifluoromethoxy)phenyl)-8-methoxy-2-(trifluoromethyl)-4H-pyrido[1,2-a]pyrimidin-4-one]
8.10	75	COc1ccn2c(=O)c(-c3ccc(OCC(F)F)cc3)c(C(F)(F)F)nc2c1 [Example 1-10, 3-(4-(2,2-difluoroethoxy)phenyl)-8-methoxy-2-(trifluoromethyl)-4H-pyrido[1,2-a]pyrimidin-4-one]
7.91	70	COc1ccn2c(=O)c(-c3ccc(OCC(F)(F)F)cc3)c(C(F)F)nc2c1 [Example 1-15, 2-(difluoromethyl)-8-methoxy-3-(4-(2,2,2-trifluoroethoxy)phenyl)-4H-pyrido[1,2-a]pyrimidin-4-one]
8.05	78	COc1ccn2c(=O)c(-c3ccc(OCC(F)(F)F)cc3F)c(C(F)(F)F)nc2c1 [Example 1-20, 3-(2-fluoro-4-(2,2,2-trifluoroethoxy)phenyl)-8-methoxy-2-(trifluoromethyl)-4H-pyrido[1,2-a]pyrimidin-4-one]
6.92	59	CN(C)c1ccn2c(=O)c(-c3cnn(CC(F)(F)C(F)(F)F)c3)c(C(F)(F)F)nc2c1 [Example 1-22, 8-(dimethylamino)-3-(1-(2,2,3,3,3-pentafluoropropyl)-1H-pyrazol-4-yl)-2-(trifluoromethyl)-4H-pyrido[1,2-a]pyrimidin-4-one]
7.70	57	CNc1ccn2c(=O)c(-c3cnn(CC(F)(F)C(F)(F)F)c3)c(C(F)(F)F)nc2c1 [Example 1-23, 8-(methylamino)-3-(1-(2,2,3,3,3-pentafluoropropyl)-1H-pyrazol-4-yl)-2-(trifluoromethyl)-4H-pyrido[1,2-a]pyrimidin-4-one]
8.15	77	CNc1ccn2c(=O)c(-c3ccc(OCC(F)(F)F)cc3)c(C(F)(F)F)nc2c1 [Example 1-29, 8-(methylamino)-3-(4-(2,2,2-trifluoroethoxy)phenyl)-2-(trifluoromethyl)-4H-pyrido[1,2-a]pyrimidin-4-one]
7.76	84	[2H]C([2H])([2H])Oc1ccn2c(=O)c(-c3cnn(CC(F)(F)C(F)(F)F)c3)c(C(F)(F)F)nc2c1 [Example 1-33, 8-(methyloxy-d3)-3-(1-(2,2,3,3,3-pentafluoropropyl)-1H-pyrazol-4-yl)-2-(trifluoromethyl)-4H-pyrido[1,2-a]pyrimidin-4-one]
7.37	62	COc1ccn2c(=O)c(-c3cnn(CC(C)(F)F)c3)c(C(F)(F)F)nc2c1 [Example 1-39, 3-(1-(2,2-difluoropropyl)-1H-pyrazol-4-yl)-8-methoxy-2-(trifluoromethyl)-4H-pyrido[1,2-a]pyrimidin-4-one]
7.60	63	COc1ccn2c(=O)c(-c3ccc(OCC(F)F)cc3F)c(C(F)(F)F)nc2c1 [Example 1-41, 3-(4-(2,2-difluoroethoxy)-2-fluorophenyl)-8-methoxy-2-(trifluoromethyl)-4H-pyrido[1,2-a]pyrimidin-4-one]
7.98	64	O=c1c(-c2ccc(OCC(F)(F)F)cc2)c(C(F)(F)F)nc2ccccn12 [Example 1-42, 3-(4-(2,2,2-trifluoroethoxy)phenyl)-2-(trifluoromethyl)-4H-pyrido[1,2-a]pyrimidin-4-one]
8.47	76	COc1ccn2c(=O)c(-c3ccc(OCC(F)(F)F)cc3)c(C(F)(F)F)nc2c1 [Example 1-44, 8-methoxy-3-(4-(2,2,2-trifluoroethoxy)phenyl)-2-(trifluoromethyl)-4H-pyrido[1,2-a]pyrimidin-4-one]
8.29	66	COc1ccn2c(=O)c(-c3ccc(OCC(F)(F)F)c(F)c3)c(C(F)(F)F)nc2c1 [Example 1-48, 3-(3-fluoro-4-(2,2,2-trifluoroethoxy)phenyl)-8-methoxy-(trifluoromethyl)-4H-pyrido[1,2-a]pyrimidin-4-one]
7.77	73	COc1ccn2c(=O)c(-c3ccc(OCC(F)(F)F)cc3)c(C(F)(F)F)nc2n1 [Example 1-50, 8-methoxy-3-(4-(2,2,2-trifluoroethoxy)phenyl)-2-(trifluoromethyl)-4H-pyrimido[1,2-a]pyrimidin-4-one]
7.18	74	COc1ccn2c(=O)c(-c3ccc(OCC(F)(F)F)cc3)c(CF)nc2c1 [Example 1-58, 2-(fluoromethyl)-8-methoxy-3-(4-(2,2,2-trifluoroethoxy)phenyl)-4H-pyrido[1,2-a]pyrimidin-4-one]
7.84	73	[2H]C([2H])([2H])Oc1ccn2c(=O)c(-c3ccc(OCC(F)(F)F)cc3)c(C(F)(F)F)nc2n1 [Example 1-59, 8-(methyloxy-d3)-3-(4-(2,2,2-trifluoroethoxy)phenyl)-2-(trifluoromethyl)-4H-pyrimido[1,2-a]pyrimidin-4-one]
7.96	56	COc1ccn2c(=O)c(-c3ccc(OCC(F)(F)F)cc3)c(C3CC3)nc2c1 [Example 1-62, 2-cyclopropyl-8-methoxy-3-(4-(2,2,2-trifluoroethoxy)phenyl)-4H-pyrido[1,2-a]pyrimidin-4-one]
7.82	71	COc1ccn2c(=O)c(-c3cnn(CCC(F)(F)F)c3)c(C(F)(F)F)nc2c1 [Example 1-69, 8-methoxy-2-(trifluoromethyl)-3-[1-(3,3,3-trifluoropropyl)pyrazol-4-yl]pyrido[1,2-a]pyrimidin-4-one]
7.24	54	COc1ccn2c(=O)c(-c3ccc(OC(F)(F)F)cc3)c(C(F)(F)F)nc2n1 [Example 1-72, 8-methoxy-3-(4-(trifluoromethoxy)phenyl)-2-(trifluoromethyl)-4H-pyrimido[1,2-a]pyrimidin-4-one]
	66	Nc1ccn2c(=O)c(-c3ccc(OCC(F)(F)F)cc3)c(C(F)(F)F)nc2c1 [Example 6-2, 8-amino-3-(4-(2,2,2-trifluoroeth-oxy)phenyl)-2-(trifluoromethyl)-4H-pyrido[1,2-a]pyrimidin-4-one]
7.09		O=c1ccn2c(=O)c(-c3cnn(CC(F)(F)C(F)(F)F)c3)c(C(F)(F)F)nc2n1CF [Example 68, 1-(Fluoromethyl)-7-[1-(2,2,3,3,3-pentafluoropropyl)-1H-pyrazol-4-yl]-8-(trifluoromethyl)-1H,2H,6H-[1,3]diazino[1,2-a]pyrimidine-2,6-dione]
7.74		COc1ccn2c(=O)c(-c3cnn(C[C@H]4CC4(F)F)c3)c(C(F)(F)F)nc2c1 [Example 69, 3-(1-{[(1R)-2,2-Difluorocyclopropyl]methyl}-1H-pyrazol-4-yl)-8-methoxy-2-(trifluoromethyl)-4H-pyrido[1,2-a]pyrimidin-4-one]
7.98		COc1ccn2c(=O)c(-c3cnn(C[C@@H]4CC4(F)F)c3)c(C(F)(F)F)nc2c1 [Example 70, 3-(1-{[(1S)-2,2-Difluorocyclopropyl]methyl}-1H-pyrazol-4-yl)-8-methoxy-2-(trifluoromethyl)-4H-pyrido[1,2-a]pyrimidin-4-one]
7.50		COc1cc2nc(C(F)(F)F)c(-c3cnn(C[C@H]4CC4(F)F)c3)c(=O)n2cc1F [Example 71, 3-(1-(((1R)-2,2-difluorocyclopropyl)methyl)-1H-pyrazol-4-yl)-7-fluoro-8-methoxy-2-(trifluoromethyl)-4H-pyrido[1,2-a]pyrimidin-4-one]

From patent US12473289B2, “Heterocyclic compounds as delta-5 desaturase inhibitors and methods of use” (Amgen Inc., priority 2019, dated 2025)
